Results taken from PubChem BioAssay (NCI).
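Exposure lasted 48 hours, with cells grown in 96-well plates and compounds tested at five concentrations. The concentration for full growth arrest is given as TGI.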

Legend:
Experiment in all cases: NCI-60 cell line screen, 48 h
DLD-1 colon = system: DLD-1 colon
SF-539 CNS = system: SF-539 CNS
NCI-H460 lung = system: NCI-H460 lung
HOP-62 NSCLC = system: HOP-62 NSCLC
EKVX NSCLC = system: EKVX NSCLC
NCI-H522 lung = system: NCI-H522 lung
MOLT-4 leukemia = system: MOLT-4 leukemia
HOP-92 NSCLC = system: HOP-92 NSCLC
MALME-3M melanoma = system: MALME-3M melanoma
SK-MEL-28 melanoma = system: SK-MEL-28 melanoma
DMS 114 small cell lung = system: DMS 114 small cell lung
SF-295 CNS = system: SF-295 CNS
A498 renal = system: A498 renal
U251 CNS = system: U251 CNS
SW-620 colon = system: SW-620 colon
OVCAR-4 ovarian = system: OVCAR-4 ovarian
M14 melanoma = system: M14 melanoma
OVCAR-3 ovarian = system: OVCAR-3 ovarian
TK-10 renal = system: TK-10 renal
NCI-H226 lung = system: NCI-H226 lung
HOP-18 NSCLC = system: HOP-18 NSCLC
HT29 colon = system: HT29 colon
UACC-62 melanoma = system: UACC-62 melanoma
786-0 renal = system: 786-0 renal
A549 NSCLC = system: A549 NSCLC
OVCAR-5 ovarian = system: OVCAR-5 ovarian
K-562 leukemia = system: K-562 leukemia
OVCAR-8 ovarian = system: OVCAR-8 ovarian
KM12 colon = system: KM12 colon
HL-60(TB) leukemia = system: HL-60(TB) leukemia
SNB-19 CNS = system: SNB-19 CNS
NCI-H23 lung = system: NCI-H23 lung
UO-31 renal = system: UO-31 renal
SNB-78 CNS = system: SNB-78 CNS
SK-OV-3 ovarian = system: SK-OV-3 ovarian
CCRF-CEM leukemia = system: CCRF-CEM leukemia
HCT-116 colon = system: HCT-116 colon
ACHN renal = system: ACHN renal
LXFL 529 NSCLC = system: LXFL 529 NSCLC
KM20L2 colon = system: KM20L2 colon
UACC-257 melanoma = system: UACC-257 melanoma
SNB-75 CNS = system: SNB-75 CNS
SF-268 CNS = system: SF-268 CNS
SK-MEL-5 melanoma = system: SK-MEL-5 melanoma
COLO 205 colon = system: COLO 205 colon
M19-MEL melanoma = system: M19-MEL melanoma
HCC-2998 colon = system: HCC-2998 colon
SK-MEL-2 melanoma = system: SK-MEL-2 melanoma
CAKI-1 renal = system: CAKI-1 renal
RPMI-8226 leukemia = system: RPMI-8226 leukemia
IGROV1 ovarian = system: IGROV1 ovarian
HCT-15 colon = system: HCT-15 colon
DMS 273 small cell lung = system: DMS 273 small cell lung
LOX IMVI melanoma = system: LOX IMVI melanoma
SR leukemia = system: SR leukemia

Measured: TGI

CCOc1ccc2c(c1)[n+]([O-])c(S(=O)(=O)c1ccc(C)cc1)c(N)[n+]2[O-]
not listed: HCT-15 colon | DMS 273 small cell lung | LOX IMVI melanoma | SR leukemia
> 100 µM: all other assays above

OCCC1(O)CCC(O)CC1 (stereo not drawn)
not listed: ACHN renal | KM20L2 colon | CAKI-1 renal
> 100 µM: all other assays above
